Test results published in the kinase profiling compilation of Christmann-Franck et al. (2016).

Biological target: STK32B (human) (UniProt Q9NY57)
Assay: KINOMEscan competition binding
Conditions: compound 10.0 µM

Compound	kinase still bound, per cent of control [%]
COc1cc(N2CCC(N3CCN(C)CC3)CC2)ccc1Nc1ncc(Cl)c(Nc2ccccc2S(=O)(=O)C(C)C)n1	0.2
CCOc1cc(N2CCC(N3CCCCC3)CC2)ccc1Nc1nc(Nc2ccccc2S(=O)(=O)C(C)C)c2cn[nH]c2n1	64

Biological target: STK10 (human) (UniProt O94804)
Assay: KINOMEscan competition binding
Conditions: compound 10.0 µM

STK10 (human), sequence (O94804 whole entry, looked up): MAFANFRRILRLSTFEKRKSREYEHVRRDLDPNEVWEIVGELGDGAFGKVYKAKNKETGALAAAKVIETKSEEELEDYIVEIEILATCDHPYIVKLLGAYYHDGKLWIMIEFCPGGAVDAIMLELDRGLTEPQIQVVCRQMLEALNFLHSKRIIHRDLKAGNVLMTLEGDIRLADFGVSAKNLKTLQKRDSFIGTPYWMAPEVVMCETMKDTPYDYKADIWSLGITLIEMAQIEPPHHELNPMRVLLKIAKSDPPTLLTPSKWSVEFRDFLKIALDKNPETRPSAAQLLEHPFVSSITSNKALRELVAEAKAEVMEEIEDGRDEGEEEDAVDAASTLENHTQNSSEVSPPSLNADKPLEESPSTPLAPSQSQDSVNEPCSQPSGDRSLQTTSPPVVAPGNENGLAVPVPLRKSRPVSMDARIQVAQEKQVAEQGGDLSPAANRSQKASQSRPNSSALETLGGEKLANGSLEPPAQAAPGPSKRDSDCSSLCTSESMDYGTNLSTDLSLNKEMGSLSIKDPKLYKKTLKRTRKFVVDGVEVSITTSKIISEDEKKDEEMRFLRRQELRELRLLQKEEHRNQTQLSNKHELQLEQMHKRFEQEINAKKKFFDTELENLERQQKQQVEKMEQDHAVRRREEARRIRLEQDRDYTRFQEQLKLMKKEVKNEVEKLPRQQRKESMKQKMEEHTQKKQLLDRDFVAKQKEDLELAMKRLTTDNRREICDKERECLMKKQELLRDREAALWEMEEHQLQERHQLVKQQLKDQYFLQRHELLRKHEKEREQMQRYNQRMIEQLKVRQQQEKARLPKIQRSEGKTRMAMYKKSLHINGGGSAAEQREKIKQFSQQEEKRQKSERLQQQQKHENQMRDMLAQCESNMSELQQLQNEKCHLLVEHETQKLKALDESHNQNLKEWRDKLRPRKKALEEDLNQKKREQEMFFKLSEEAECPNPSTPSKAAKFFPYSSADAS

Compound	kinase still bound, per cent of control [%]
CCN1CCN(Cc2ccc(NC(=O)c3ccc(C)c(/C=C/c4cnc(Nc5cc(N6CCNCC6)nc(C)n5)cn4)c3)cc2C(F)(F)F)CC1	0
COc1cc(N2CCC(N3CCN(C)CC3)CC2)ccc1Nc1ncc(Cl)c(Nc2ccccc2S(=O)(=O)C(C)C)n1	0
CCOc1cc(N2CCC(N3CCCCC3)CC2)ccc1Nc1nc(Nc2ccccc2S(=O)(=O)C(C)C)c2cn[nH]c2n1	100
CCN1CCN(Cc2ccc(NC(=O)c3ccc(C)c(Oc4ccnc5[nH]ccc45)c3)cc2C(F)(F)F)CC1	0

Biological target: ERBB2 (human) (UniProt P04626)
Assay: KINOMEscan competition binding
Conditions: compound 10.0 µM

Compound	kinase still bound, per cent of control [%]
CCN1CCN(Cc2ccc(NC(=O)c3ccc(C)c(/C=C/c4cnc(Nc5cc(N6CCNCC6)nc(C)n5)cn4)c3)cc2C(F)(F)F)CC1	0
COc1cc(N2CCC(N3CCN(C)CC3)CC2)ccc1Nc1ncc(Cl)c(Nc2ccccc2S(=O)(=O)C(C)C)n1	8
CCOc1cc(N2CCC(N3CCCCC3)CC2)ccc1Nc1nc(Nc2ccccc2S(=O)(=O)C(C)C)c2cn[nH]c2n1	37

Biological target: MAP3K9 (human) (UniProt P80192)
Sequence (P80192 whole entry, looked up): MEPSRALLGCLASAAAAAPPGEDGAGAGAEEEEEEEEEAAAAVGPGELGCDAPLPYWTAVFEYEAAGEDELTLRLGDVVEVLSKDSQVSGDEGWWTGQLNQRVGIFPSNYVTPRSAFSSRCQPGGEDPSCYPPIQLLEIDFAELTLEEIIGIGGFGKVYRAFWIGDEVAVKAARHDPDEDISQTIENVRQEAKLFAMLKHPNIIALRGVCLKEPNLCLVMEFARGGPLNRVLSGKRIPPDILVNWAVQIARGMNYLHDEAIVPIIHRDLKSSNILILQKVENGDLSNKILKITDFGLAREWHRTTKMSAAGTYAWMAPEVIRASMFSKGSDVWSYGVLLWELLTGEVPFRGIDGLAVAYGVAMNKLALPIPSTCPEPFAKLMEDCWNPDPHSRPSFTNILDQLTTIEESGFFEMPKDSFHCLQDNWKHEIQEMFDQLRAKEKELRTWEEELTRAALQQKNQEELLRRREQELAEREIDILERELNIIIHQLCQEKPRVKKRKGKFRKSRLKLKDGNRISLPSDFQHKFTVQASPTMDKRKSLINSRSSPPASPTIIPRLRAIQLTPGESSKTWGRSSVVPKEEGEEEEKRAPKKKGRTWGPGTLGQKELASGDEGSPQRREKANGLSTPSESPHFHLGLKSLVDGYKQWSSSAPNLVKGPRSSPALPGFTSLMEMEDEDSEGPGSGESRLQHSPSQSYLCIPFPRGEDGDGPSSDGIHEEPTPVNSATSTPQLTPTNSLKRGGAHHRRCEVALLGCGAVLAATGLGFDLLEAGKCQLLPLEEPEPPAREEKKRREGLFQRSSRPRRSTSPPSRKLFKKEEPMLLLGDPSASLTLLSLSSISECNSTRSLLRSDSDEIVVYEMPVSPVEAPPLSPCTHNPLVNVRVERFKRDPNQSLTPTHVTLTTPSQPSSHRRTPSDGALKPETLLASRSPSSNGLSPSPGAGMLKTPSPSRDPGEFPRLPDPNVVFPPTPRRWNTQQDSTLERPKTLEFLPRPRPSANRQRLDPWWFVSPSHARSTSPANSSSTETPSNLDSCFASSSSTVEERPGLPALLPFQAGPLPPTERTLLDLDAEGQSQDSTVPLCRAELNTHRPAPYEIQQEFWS
Assay: KINOMEscan competition binding
Conditions: compound 10.0 µM

Compound	kinase still bound, per cent of control [%]
CCN1CCN(Cc2ccc(NC(=O)c3ccc(C)c(/C=C/c4cnc(Nc5cc(N6CCNCC6)nc(C)n5)cn4)c3)cc2C(F)(F)F)CC1	21
COc1cc(N2CCC(N3CCN(C)CC3)CC2)ccc1Nc1ncc(Cl)c(Nc2ccccc2S(=O)(=O)C(C)C)n1	0.35
CCOc1cc(N2CCC(N3CCCCC3)CC2)ccc1Nc1nc(Nc2ccccc2S(=O)(=O)C(C)C)c2cn[nH]c2n1	94

Biological target: BRSK1 (human) (UniProt Q8TDC3)
Sequence (Q8TDC3 whole entry, looked up): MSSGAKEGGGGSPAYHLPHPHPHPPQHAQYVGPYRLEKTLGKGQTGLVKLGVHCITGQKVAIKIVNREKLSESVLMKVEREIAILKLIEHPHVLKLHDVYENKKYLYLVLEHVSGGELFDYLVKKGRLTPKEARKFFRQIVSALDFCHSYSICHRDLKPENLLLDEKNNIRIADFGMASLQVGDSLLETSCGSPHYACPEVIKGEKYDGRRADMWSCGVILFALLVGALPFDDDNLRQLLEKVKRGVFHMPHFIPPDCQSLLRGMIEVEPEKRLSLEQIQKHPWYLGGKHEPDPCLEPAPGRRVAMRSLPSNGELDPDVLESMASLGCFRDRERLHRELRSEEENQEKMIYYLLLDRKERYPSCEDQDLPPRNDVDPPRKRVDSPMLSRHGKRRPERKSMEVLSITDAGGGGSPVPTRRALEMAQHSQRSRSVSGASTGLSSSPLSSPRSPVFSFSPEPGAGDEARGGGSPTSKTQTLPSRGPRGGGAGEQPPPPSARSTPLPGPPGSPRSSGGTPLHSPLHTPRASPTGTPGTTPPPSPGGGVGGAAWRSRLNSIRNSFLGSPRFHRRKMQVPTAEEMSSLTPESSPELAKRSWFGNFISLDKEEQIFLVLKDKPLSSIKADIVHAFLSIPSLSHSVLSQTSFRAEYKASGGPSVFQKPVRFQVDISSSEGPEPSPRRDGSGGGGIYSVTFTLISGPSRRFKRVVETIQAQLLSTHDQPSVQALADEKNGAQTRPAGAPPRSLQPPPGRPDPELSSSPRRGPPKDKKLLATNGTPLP
Assay: KINOMEscan competition binding
Conditions: compound 10.0 µM

Compound	kinase still bound, per cent of control [%]
CCN1CCN(Cc2ccc(NC(=O)c3ccc(C)c(/C=C/c4cnc(Nc5cc(N6CCNCC6)nc(C)n5)cn4)c3)cc2C(F)(F)F)CC1	91
COc1cc(N2CCC(N3CCN(C)CC3)CC2)ccc1Nc1ncc(Cl)c(Nc2ccccc2S(=O)(=O)C(C)C)n1	1.2
CCOc1cc(N2CCC(N3CCCCC3)CC2)ccc1Nc1nc(Nc2ccccc2S(=O)(=O)C(C)C)c2cn[nH]c2n1	100

Biological target: CDK18 (human) (UniProt Q07002)
Assay: KINOMEscan competition binding
Conditions: compound 10.0 µM

Compound	kinase still bound, per cent of control [%]
CCN1CCN(Cc2ccc(NC(=O)c3ccc(C)c(/C=C/c4cnc(Nc5cc(N6CCNCC6)nc(C)n5)cn4)c3)cc2C(F)(F)F)CC1	81
COc1cc(N2CCC(N3CCN(C)CC3)CC2)ccc1Nc1ncc(Cl)c(Nc2ccccc2S(=O)(=O)C(C)C)n1	40
CCOc1cc(N2CCC(N3CCCCC3)CC2)ccc1Nc1nc(Nc2ccccc2S(=O)(=O)C(C)C)c2cn[nH]c2n1	100
CCN1CCN(Cc2ccc(NC(=O)c3ccc(C)c(Oc4ccnc5[nH]ccc45)c3)cc2C(F)(F)F)CC1	1.8

Biological target: EGFR (human) (UniProt P00533)
Assay: KINOMEscan competition binding
Conditions: compound 10.0 µM

Compound	kinase still bound, per cent of control [%]
CCN1CCN(Cc2ccc(NC(=O)c3ccc(C)c(/C=C/c4cnc(Nc5cc(N6CCNCC6)nc(C)n5)cn4)c3)cc2C(F)(F)F)CC1	12
COc1cc(N2CCC(N3CCN(C)CC3)CC2)ccc1Nc1ncc(Cl)c(Nc2ccccc2S(=O)(=O)C(C)C)n1	0.1
CCOc1cc(N2CCC(N3CCCCC3)CC2)ccc1Nc1nc(Nc2ccccc2S(=O)(=O)C(C)C)c2cn[nH]c2n1	4.1
CCN1CCN(Cc2ccc(NC(=O)c3ccc(C)c(Oc4ccnc5[nH]ccc45)c3)cc2C(F)(F)F)CC1	5.6

Biological target: TAOK1 (human) (UniProt Q7L7X3)
Sequence (Q7L7X3 whole entry, looked up): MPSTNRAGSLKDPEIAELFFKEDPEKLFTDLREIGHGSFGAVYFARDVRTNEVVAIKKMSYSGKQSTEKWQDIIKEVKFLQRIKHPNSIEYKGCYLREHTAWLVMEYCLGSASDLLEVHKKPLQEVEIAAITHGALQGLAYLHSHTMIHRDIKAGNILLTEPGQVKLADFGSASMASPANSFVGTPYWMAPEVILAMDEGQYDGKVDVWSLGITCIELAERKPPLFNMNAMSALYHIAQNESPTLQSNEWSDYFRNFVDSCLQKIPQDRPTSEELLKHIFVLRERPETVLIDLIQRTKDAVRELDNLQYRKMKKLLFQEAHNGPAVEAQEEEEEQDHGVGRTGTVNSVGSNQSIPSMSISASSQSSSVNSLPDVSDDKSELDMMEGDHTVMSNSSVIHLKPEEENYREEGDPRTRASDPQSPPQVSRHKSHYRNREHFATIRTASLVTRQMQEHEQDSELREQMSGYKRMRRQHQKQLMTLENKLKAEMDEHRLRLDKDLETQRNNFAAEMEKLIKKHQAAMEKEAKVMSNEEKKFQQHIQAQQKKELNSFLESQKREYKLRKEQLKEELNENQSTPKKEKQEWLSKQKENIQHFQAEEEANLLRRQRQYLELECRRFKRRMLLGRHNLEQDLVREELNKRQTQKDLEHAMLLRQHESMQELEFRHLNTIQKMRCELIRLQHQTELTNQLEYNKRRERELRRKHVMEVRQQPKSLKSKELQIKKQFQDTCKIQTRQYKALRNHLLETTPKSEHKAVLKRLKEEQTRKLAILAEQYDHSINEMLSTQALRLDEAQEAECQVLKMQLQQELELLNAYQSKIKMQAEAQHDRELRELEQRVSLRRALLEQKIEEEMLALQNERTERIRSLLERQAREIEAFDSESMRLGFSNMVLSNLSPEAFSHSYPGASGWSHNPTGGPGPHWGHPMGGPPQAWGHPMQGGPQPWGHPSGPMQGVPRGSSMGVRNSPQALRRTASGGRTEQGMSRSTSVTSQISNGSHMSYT
Assay: KINOMEscan competition binding
Conditions: compound 10.0 µM

Compound	kinase still bound, per cent of control [%]
CCN1CCN(Cc2ccc(NC(=O)c3ccc(C)c(/C=C/c4cnc(Nc5cc(N6CCNCC6)nc(C)n5)cn4)c3)cc2C(F)(F)F)CC1	7
COc1cc(N2CCC(N3CCN(C)CC3)CC2)ccc1Nc1ncc(Cl)c(Nc2ccccc2S(=O)(=O)C(C)C)n1	0.1
CCOc1cc(N2CCC(N3CCCCC3)CC2)ccc1Nc1nc(Nc2ccccc2S(=O)(=O)C(C)C)c2cn[nH]c2n1	33
CCN1CCN(Cc2ccc(NC(=O)c3ccc(C)c(Oc4ccnc5[nH]ccc45)c3)cc2C(F)(F)F)CC1	3

Biological target: CIT (human) (UniProt O14578)
Assay: KINOMEscan competition binding
Conditions: compound 10.0 µM

Compound	kinase still bound, per cent of control [%]
CCN1CCN(Cc2ccc(NC(=O)c3ccc(C)c(/C=C/c4cnc(Nc5cc(N6CCNCC6)nc(C)n5)cn4)c3)cc2C(F)(F)F)CC1	0.2
COc1cc(N2CCC(N3CCN(C)CC3)CC2)ccc1Nc1ncc(Cl)c(Nc2ccccc2S(=O)(=O)C(C)C)n1	40
CCOc1cc(N2CCC(N3CCCCC3)CC2)ccc1Nc1nc(Nc2ccccc2S(=O)(=O)C(C)C)c2cn[nH]c2n1	100
CCN1CCN(Cc2ccc(NC(=O)c3ccc(C)c(Oc4ccnc5[nH]ccc45)c3)cc2C(F)(F)F)CC1	0.1

Biological target: TAOK3 (human) (UniProt Q9H2K8)
Sequence (Q9H2K8 whole entry, looked up): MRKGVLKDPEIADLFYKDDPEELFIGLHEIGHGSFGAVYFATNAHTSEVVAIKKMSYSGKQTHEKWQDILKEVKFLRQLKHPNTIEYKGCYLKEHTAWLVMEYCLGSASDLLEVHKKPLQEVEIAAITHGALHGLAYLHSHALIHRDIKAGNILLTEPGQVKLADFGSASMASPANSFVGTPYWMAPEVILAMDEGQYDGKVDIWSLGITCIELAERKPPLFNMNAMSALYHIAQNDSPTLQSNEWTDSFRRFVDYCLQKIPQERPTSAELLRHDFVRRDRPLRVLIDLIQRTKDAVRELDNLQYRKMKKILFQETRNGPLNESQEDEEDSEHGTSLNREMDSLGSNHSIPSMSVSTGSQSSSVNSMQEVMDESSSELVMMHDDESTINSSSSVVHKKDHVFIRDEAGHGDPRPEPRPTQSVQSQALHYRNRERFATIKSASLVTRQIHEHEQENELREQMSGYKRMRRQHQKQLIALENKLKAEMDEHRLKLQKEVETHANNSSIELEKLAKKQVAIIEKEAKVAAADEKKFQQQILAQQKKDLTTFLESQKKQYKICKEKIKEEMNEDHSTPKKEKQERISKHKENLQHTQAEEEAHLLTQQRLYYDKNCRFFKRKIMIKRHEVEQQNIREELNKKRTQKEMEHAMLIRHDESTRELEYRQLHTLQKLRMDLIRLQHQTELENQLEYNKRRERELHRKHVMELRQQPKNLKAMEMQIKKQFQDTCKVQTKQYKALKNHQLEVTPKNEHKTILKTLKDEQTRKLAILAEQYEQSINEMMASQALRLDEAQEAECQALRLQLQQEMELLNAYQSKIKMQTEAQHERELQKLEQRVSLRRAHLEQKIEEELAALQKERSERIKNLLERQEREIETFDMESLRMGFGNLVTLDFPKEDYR
Assay: KINOMEscan competition binding
Conditions: compound 10.0 µM

Compound	kinase still bound, per cent of control [%]
CCN1CCN(Cc2ccc(NC(=O)c3ccc(C)c(/C=C/c4cnc(Nc5cc(N6CCNCC6)nc(C)n5)cn4)c3)cc2C(F)(F)F)CC1	0
COc1cc(N2CCC(N3CCN(C)CC3)CC2)ccc1Nc1ncc(Cl)c(Nc2ccccc2S(=O)(=O)C(C)C)n1	0.1
CCOc1cc(N2CCC(N3CCCCC3)CC2)ccc1Nc1nc(Nc2ccccc2S(=O)(=O)C(C)C)c2cn[nH]c2n1	36

Biological target: MYLK3 (human) (UniProt Q32MK0)
Assay: KINOMEscan competition binding
Conditions: compound 10.0 µM

Compound	kinase still bound, per cent of control [%]
CCN1CCN(Cc2ccc(NC(=O)c3ccc(C)c(/C=C/c4cnc(Nc5cc(N6CCNCC6)nc(C)n5)cn4)c3)cc2C(F)(F)F)CC1	59
COc1cc(N2CCC(N3CCN(C)CC3)CC2)ccc1Nc1ncc(Cl)c(Nc2ccccc2S(=O)(=O)C(C)C)n1	40
